Test results reported in patent US11077128B2, “Selective inhibitors of Alpha2-containing isoforms of Na,K-ATPase and use thereof for reduction of intraocular pressure” (Yeda Research and Development Co. Ltd., priority 2015, dated 2021).

Experiments:
[1] = target: human Na,K-ATPase α2β1FXYD1 (Homo sapiens, UniProt P50993); assay: biochemical; format: biochemical
[2] = tested on: human Na,K-ATPase α2β3FXYD1; assay: biochemical; format: biochemical

| Compound | Selectivity Ki ratio α1β1/α2β1 [1] | Selectivity Ki ratio α1β1/α2β3 [2] |
| --- | --- | --- |
| CC1CN(CCS(C)(=O)=O)CCC(O[C@@H]2C(C)O[C@@H](OC3C(C)OC(O[C@H]4CC[C@@]5(C)C(CCC6C5CC(O)[C@]5(C)[C@@H](C7=CC(=O)OC7)CC[C@]65O)C4)C[C@@H]3O)C[C@@H]2O)O1 (stereo in doubt) [DESM, 4-((3S,5R,8R,9S,10S,12R,13S,14S,17R)-12,14-dihydroxy-3-(((2S,4S,5R,6R)-4-hydroxy-5-(((2S,4S,5S,6R)-4-hydroxy-6-methyl-5-((2-methyl-4-(2-(methylsulfonyl)ethyl)-1,4-oxazepan-7-yl)oxy)tetrahydro-2H-pyran-2-yl)oxy)-6-methyltetrahydro-2H-pyran-2-yl)oxy)-10,13-dimethylhexadecahydro-1H-cyclopenta[a]phenanthren-17-yl)furan-2(5H)-one] | 9.4 | – |
| CC1CN(CCC2CC2)CCC(O[C@@H]2C(C)O[C@@H](OC3C(C)OC(O[C@H]4CC[C@@]5(C)C(CCC6C5CC(O)[C@]5(C)[C@@H](C7=CC(=O)OC7)CC[C@]65O)C4)C[C@@H]3O)C[C@@H]2O)O1 (stereo in doubt) [DEcP, 4-((3S,5R,8R,9S,10S,12R,13S,14S,17R)-3-(((2S,4S,5R,6R)-5-(((2S,4S,5S,6R)-5-((4-(2-cyclopropylethyl)-2-methyl-1,4-oxazepan-7-yl)oxy)-4-hydroxy-6-methyltetrahydro-2H-pyran-2-yl)oxy)-4-hydroxy-6-methyltetrahydro-2H-pyran-2-yl)oxy)-12,14-dihydroxy-10,13-dimethylhexadecahydro-1H-cyclopenta[a]phenanthren-17-yl)furan-2(5H)-one] | – | 10-12 |
| CC1CN(CS(C)(=O)=O)CCC(O[C@@H]2C(C)O[C@@H](OC3C(C)OC(O[C@H]4CC[C@@]5(C)C(CCC6C5CC(O)[C@]5(C)[C@@H](C7=CC(=O)OC7)CC[C@]65O)C4)C[C@@H]3O)C[C@@H]2O)O1 (stereo in doubt) [DMSM, 4-((3S,5R,8R,9S,10S,12R,13S,14S,17R)-12,14-dihydroxy-3-(((2S,4S,5R,6R)-4-hydroxy-5-(((2S,4S,5S,6R)-4-hydroxy-6-methyl-5-((2-methyl-4-((methylsulfonyl)methyl)-1,4-oxazepan-7-yl)oxy)tetrahydro-2H-pyran-2-yl)oxy)-6-methyltetrahydro-2H-pyran-2-yl)oxy)-10,13-dimethylhexadecahydro-1H-cyclopenta[a]phenanthren-17-yl)furan-2(5H)-one] | 6.9 | – |
| CC1CN(C2CC2)CCC(O[C@@H]2C(C)O[C@@H](O[C@@H]3C(C)O[C@@H](O[C@H]4CC[C@@]5(C)C(CCC6C5CC(O)[C@]5(C)[C@@H](C7=CC(=O)OC7)CC[C@]65O)C4)C[C@@H]3O)C[C@@H]2O)O1 (stereo in doubt) [DcP, 4-((3S,5R,8R,9S,10S,12R,13S,14S,17R)-3-(((2R,4S,5S,6R)-5-(((2S,4S,5S,6R)-5-((4-cyclopropyl-2-methyl-1,4-oxazepan-7-yl)oxy)-4-hydroxy-6-methyltetrahydro-2H-pyran-2-yl)oxy)-4-hydroxy-6-methyltetrahydro-2H-pyran-2-yl)oxy)-12,14-dihydroxy-10,13-dimethylhexadecahydro-1H-cyclopenta[a]phenanthren-17-yl)furan-2(5H)-one] | 7.5 | – |
| CC1CN(C(C)C)CCC(O[C@@H]2[C@H](C)O[C@@H](O[C@@H]3[C@H](C)O[C@@H](O[C@H]4CC[C@@]5(C)C(CCC6C5C[C@H](O)[C@]5(C)[C@@H](C7=CC(=O)OC7)CC[C@]65O)C4)C[C@@H]3O)C[C@@H]2O)O1 (some centres unmarked) [DiP] | 5.1 | – |
